Test results taken from patent US10513694B2, “Thienopyrrole compounds and uses thereof” (PROMEGA CORPORATION, priority 2015, dated 2019).

What was measured:
[1] = target: T1, purified Nluc enzyme (Oplophorus gracilirostris, UniProt Q9GV45, A31E/A60N/A81I/F95D/I117V/K70R/L54V/L99Q/M102K/N193R/P142E/Q151K/Q38R/Q45L/V71I/Y165I); format: biochemical; settings: titration up to 100 μM final; RT 2 hrs; pro-substrate PBI-4442 + DTT
T1 construct: purchased Promega Corporation
Method in brief: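 Purified Nluc enzyme with 20 mM DTT and a pro-substrate reduced by DTT to the Nluc substrate. 11-point 1:2 compound titrations (top 100 μM final) incubated 2 h at RT; luminescence read and IC50 fitted.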

[2] = tested on: Nluc enzyme; assay: Multiplex RealTime-Glo / Caspase-Glo 3/7 in MCF7 cells; format: cell-based
Description: (§1) A) In a Corning 3570 assay plate, MCF7 cells were plated at 1,000 cells/well in 20 μL of cell culture media (EMEM supplemented with 0.01 mg/mL human recombinant insulin and 10% fetal bovine serum) and incubated in overnight. 10 μL of 4× REALTIME-GLO™ MT Cell Viability reagents (Promega Corporation) in media or 10 μL media only was added to the cells. 10 μL of 40 μM staurosporine in media or 10 μL media only (control) was added to the cells. The cells were incubated, and caspase activation monitored at 5.5 hrs post-reagent addition. To monitor caspase activation, 40 μL CASPASE-GLO® 3/7 Assay Reagent (Promega Corporation), either on its own (Caspase) or with 200 μM of JRW-0004, JRW-0013, or JRW-0042, was added. Reactions were incubated at RT, and luminescence was measured at 1 hr 10 min post-reagent addition on Tecan M1000 Pro plate reader.
(§2) When comparing the signal generated from the CASPASE-GLO® reagent in media only versus the signal generated in media containing REALTIME-GLO™ reagent, the signal is higher in the multiplex reaction.

[3] = target: Nluc (Oplophorus gracilirostris, UniProt Q9GV45, A31E/A60N/A81I/F95D/I117V/K70R/L54V/L99Q/M102K/N193R/P142E/Q151K/Q38R/Q45L/V71I/Y165I); assay: as above; format: cell-based; parameters: purchased Promega Corporation
Sequence of Nluc (Q9GV45 28-196 with tags or gaps with the stated changes limits assumed): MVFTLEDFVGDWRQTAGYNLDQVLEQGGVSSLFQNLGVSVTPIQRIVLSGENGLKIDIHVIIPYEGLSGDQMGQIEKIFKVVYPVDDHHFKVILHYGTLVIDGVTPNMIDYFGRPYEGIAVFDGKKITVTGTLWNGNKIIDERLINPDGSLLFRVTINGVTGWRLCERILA
Description: as §1, §2

[4] = tested on: B2AR-Nluc or Nluc-B2AR fusion protein; assay: Cell permeability with bioluminescent imaging (HeLa, B2AR-Nluc / Nluc-B2AR); format: cell-based; settings: 30 μM compound, 10 μM furimazine
Description: HeLa cells were transiently transfected with Beta-2 Adrenergic Receptor-Nluc (B2AR-Nluc; C-Terminus Nluc) or Nluc-Beta-2 Adrenergic Receptor (Nluc-B2AR; N-terminus Nluc) fusion protein to anchor and orient Nluc intracellularly or extracellularly, respectively. 24 hrs post-transfection, cells were treated with −/+30 μM of a thienopyrrole compound, JRW-0147, JRW-0051, and JRW-0138. 10 μM furimazine was added, and luminescence was detected by imaging on the Olympus LV200.

[5] = tested on: Src-Nluc fusion protein; assay: Target engagement model (Src-Nluc BRET); format: cell-based; settings: HEK293 Src-Nluc -/+ 50 μg/mL digitonin; 1 μM Dasatinib-DY605 tracer; 2 hrs
Description: HEK293 cells were transiently transfected with Src-Nluc fusion protein. 24 hours post-transfection, cells were treated with −/+50 μg/mL digitonin to simulate a live and lytic scenario, respectively. Intact cells and permeabilized cells were labeled with 1 μM Dasatinib-DY605 tracer (impermeable) and treated with a cell impermeable thienopyrrole compound JRW-0147 response curve for 2 hrs. 10 μM furimazine was added, and a BRET ratio 610/450 nm was recorded.

[6] = tested on: HEK293 cells; assay: Cell viability and toxicity (CellTiter-Glo); format: cell-based; settings: up to 100 μM after 18 hrs
Description: HEK293 cells were plated at 20 k cells/well and exposed to vehicle (DMSO), digitonin (positive control for cell death), or JRW-0344 for 10 min/30 min/120 min/240 min/or 18 hrs. CellTiter-Glo (Promega Corp.) was added, and luminescence measured.

[7] = tested on: SRC-Nluc or Nluc-HaloTag; assay: Inhibition of extracellular luciferase activity (SRC-Nluc / Nluc-HaloTag BRET); format: cell-based; settings: HEK293; 1 μM Dasatinib-DY605 (SRC-Nluc) or 100 nM NanoBRET-618 (Nluc-HaloTag)
Description: HEK293 were transiently transfected with either SRC-Nluc or Nluc-HaloTag. 24 hrs post-transfection, 20 k/cells were plated into wells of a 96-well plate (Costar 3600). 1 μM of the cell impermeable tracer Dasatinib-DY605 was added to the HEK293 SRC-Nluc expressing cells, and 100 nM of the cell permeable tracer NanoBRET-618, was added to the Nluc-HaloTag expressing cells. Both HEK293 SRC-Nluc and Nluc-HaloTag cells were exposed to a dose-response curve of JRW-0344.

[8] = 10 μM Stauro vs Control, 200 μM compound
[9] = CASPASE-GLO 3/7 reagent with 200 μM compound, 1 hr 10 min

T1 sequence (Q9GV45 28-196 with tags or gaps with the stated changes limits assumed): as above

SMILES | Inhibition of purified Nluc enzyme (FIG. 2) [1] | Fold Cont, Media only [2, 8] | Avg (luminescence), Media only, 10 μM Stauro [2, 9] | Avg (luminescence), Media only, Control [2, 9] | Fold Cont, Media containing RealTime-Glo [3, 8] | Avg (luminescence), Media containing RealTime-Glo, 10 μM Stauro [3, 9] | Avg (luminescence), Media containing RealTime-Glo, Control [3, 9] | Permeability and inhibition of extracellular / intracellular Nluc by imaging (FIG. 14) [4] | Inhibition of BRET in cell debris vs inside cells (FIGS. 15B-15C) [5] | Toxicity (FIG. 18A) [6] | Inhibition of BRET (FIGS. 20A-20C) [7]
CCN(C(=O)Cn1c(C(=O)N[C@H]2CC[C@H](C(=O)OC)CC2)cc2sccc21)c1cccc(C)c1 [JRW-0013, trans-methyl-4-(4-(2-(ethyl(m-tolyl)amino)-2-oxoethyl)-4H-thieno[3,2-b]pyrrole-5-carboxamido)cyclohexane-1-carboxylate] | capable of inhibiting purified Nluc enzyme | 6.85 | 55282 | 8069 | 6.29 | 54338 | 8636 | – | – | – | –
CCN(C(=O)Cn1c(C(=O)N[C@H]2CC[C@H](C(=O)NCCCCCC(=O)O)CC2)cc2sccc21)c1cccc(C)c1 [JRW-0147, 6-(trans-4-(4-(2-(ethyl(m-tolyl)amino)-2-oxoethyl)-4H-thieno[3,2-b]pyrrole-5-carboxamido)cyclohexane-1-carboxamido)hexanoic acid] | capable of inhibiting purified Nluc enzyme | – | – | – | – | – | – | impermeable and inhibited extracellular Nluc and enhanced intracellular Nluc | inhibited BRET in cell debris, but not BRET inside cells | – | –
CCN(C(=O)Cn1c(C(=O)N[C@H]2CC[C@H](C(=O)NCCCCCCS(=O)(=O)[O-])CC2)cc2sccc21)c1cccc(C)c1.[Na+] [JRW-0344, Sodium 6-(trans-4-(4-(2-(ethyl(m-tolyl)amino)-2-oxoethyl)-4H-thieno[3,2-b]pyrrole-5-carboxamido)cyclohexane-1-carboxamido)hexane-1-sulfonate] | – | – | – | – | – | – | – | – | – | no apparent toxicity | inhibits BRET in cell debris in the HEK293 SRC-Nluc expressing cells, but not in HEK293 Nluc-HaloTag expressing cells
